# Measurements taken from PMC5537602, “TRPA1 channel mediates organophosphate-induced delayed neuropathy” (Cell Discovery, 2017).
# How the values were obtained:
# TRPC4 = molecular target: T1, TRPC4 (Homo sapiens, UniProt Q9UBN4); assay: Calcium fluorescence signal, HEK293 cells overexpressing TRPC4; format: cell-based; conditions: 10 μM
# T1 construct: expressed in transfected cells; host or cells: HEK293
# T1 sequence (Q9UBN4 1-977): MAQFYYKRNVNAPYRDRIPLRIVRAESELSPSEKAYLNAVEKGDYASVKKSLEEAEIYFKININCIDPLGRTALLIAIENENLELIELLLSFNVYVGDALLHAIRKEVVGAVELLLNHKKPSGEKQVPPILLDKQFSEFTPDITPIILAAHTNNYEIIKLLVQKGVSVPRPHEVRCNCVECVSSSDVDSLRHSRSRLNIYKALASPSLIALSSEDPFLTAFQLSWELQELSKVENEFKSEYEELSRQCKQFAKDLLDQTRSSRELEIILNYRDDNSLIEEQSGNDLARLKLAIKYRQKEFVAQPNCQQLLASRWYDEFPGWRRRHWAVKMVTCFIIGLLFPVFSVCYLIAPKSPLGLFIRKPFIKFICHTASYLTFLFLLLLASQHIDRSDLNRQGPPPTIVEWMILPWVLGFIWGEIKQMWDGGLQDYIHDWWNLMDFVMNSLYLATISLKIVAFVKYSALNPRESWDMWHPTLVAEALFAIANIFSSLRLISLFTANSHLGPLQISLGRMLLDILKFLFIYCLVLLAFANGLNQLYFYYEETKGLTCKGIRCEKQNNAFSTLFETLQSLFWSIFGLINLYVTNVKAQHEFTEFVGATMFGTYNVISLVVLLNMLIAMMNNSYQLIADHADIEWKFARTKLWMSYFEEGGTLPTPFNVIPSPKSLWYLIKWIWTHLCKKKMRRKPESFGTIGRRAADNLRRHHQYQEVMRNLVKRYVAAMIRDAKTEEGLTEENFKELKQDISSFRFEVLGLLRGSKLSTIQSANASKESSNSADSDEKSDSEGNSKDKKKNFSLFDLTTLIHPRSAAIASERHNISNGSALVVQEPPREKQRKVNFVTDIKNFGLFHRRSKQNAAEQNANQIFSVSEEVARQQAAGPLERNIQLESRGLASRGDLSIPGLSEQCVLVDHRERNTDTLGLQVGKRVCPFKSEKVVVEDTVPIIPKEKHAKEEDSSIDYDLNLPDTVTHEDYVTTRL
# Description: Figure S3. Specificity of malathion for TRPA1 channels. (A-F) Time course of the fluorescence signal induced by malathion (Mala, 10 μM) and the indicated positive agonists (10 μM) in HEK293 cells overexpressing TRPV1 (A), TRPV3 (B), TRPV4 (C), TRPM8 (D), TRPC4 (E) and TRPC5 (F) channels. The fluorescence signals are scaled as F/F0. EC indicates external solution. […]
# cells for each tested TRP channel. All bars are presented as the mean ± SEM. […]
# [1] = test system: hTRPA1 carrying single mutations (C414A, C421A, C621A, C641A, C665A or K710R); assay: Whole-cell patch-clamp of mutant hTRPA1 channels; format: cell-based, human; conditions: 30 μM malathion
# Description: Human embryonic kidney 293 (HEK293) cells were cultured in DMEM containing 10% (vol/vol) heat-inactivated fetal bovine serum, 100 units ml^−1 penicillin–streptomycin and 2 mM L-glutamine at 37 °C in a humidity-controlled sterile incubator with 5% CO2. All cell culture reagents were purchased from Life Technologies. HEK293 cells were transfected transiently with the corresponding plasmids using lipofectamine 2000 (Life Technologies). Transfection efficiency was monitored by co-transfecting EGFP plasmid which codes for the enhanced green fluorescent protein. Electrophysiological recordings were performed between 24 and 36 h after transfection.
# Whole-cell patch-clamp recordings in DRG neurons (small diameter, […]) and HEK293 cells were operated at room temperature (23–25 °C) using EPC-10 amplifier and Patch Master Software (HEKA). […] Currents were sampled at 10 kHz and low-pass filtered at 2.9 kHz. The internal solution was as follows (in mM): 140 CsCl, 10 HEPES, 5 EGTA, 0.1 CaCl2 and 1 MgCl2, with pH adjusted to 7.2 by CsOH and osmolarity 295–300 mOsm. […] TRPA1 currents development was monitored with repetitive injections of 300 ms duration voltage ramps from −100 to +100 mV every 2 s and the holding potential was set to 0 mV for 50 ms, existing in both sides of the voltage ramp. […]
smiles,measurement,setting,value
"CCOC(=O)CC(SP(=S)(OC)OC)C(=O)OCC (stereo not drawn) [malathion, S-[1,2-bis (ethoxycarbonyl)ethyl] O, O-dimethyl phosphorodithioate]",activation of TRPC4,TRPC4,could not activate
same,response of mutant hTRPA1 compared to WT channels,[1],significantly reduced
